Data set [1] has as its system Streptococcus pneumoniae ATCC 49619. In words: Disc diffusion, inhibition of growth zones. The data set is classed as cell-based. Conditions: S. pneumoniae; discs at 100 or 200 µg/mL, 24 h at 37 °C. As for the experimental part:
(§1) Fifteen strains of microorganisms from different species were used. The growth inhibition zones were evaluated in two independent experiments (n = 2 in each of them), and the potential inhibitors of microbial growth are presented in Table 3. The hydrazine and hydrazide derivatives of 3-formylchromone constitute a class of potential antimicrobial agents and are worthy of further investigation. […] In case of N. meningitidis (result with *) the action of 9 was noted just for 100 µg/mL and the influence in concentration of 200 µg/mL was not observed.
(§2) The microbial reference strains representing different families of bacteria and fungi, pathogenic for man and animals, were used. The 15 strains were derived from international microbial collections held by the Department of Pharmaceutical Microbiology and Microbiological Diagnostics of the Medical University of Lodz: Candida albicans ATCC 10231, Enterococcus faecalis ATCC 29212, Klebsiella pneumoniae ATCC 700603, Pseudomonas aeruginosa NCTC 6749, Proteus vulgaris CCM 1799, Staphylococcus epidermidis ATCC 12228, Shigella flexneri ATCC 12022, Streptococcus pneumoniae ATCC 49619, Streptococcus pyogenes ATCC 19615, Corynebacterium jeikeium K411, Escherichia coli ATCC 25922, Staphylococcus aureus NCTC 4135, Streptococcus dysgalactiae subsp. equisimilis ATCC 12394, Neisseria meningitidis DSM 25942, Listeria monocytogenes PCM 2191.
(§3) The strains were stored at −80 °C, frozen in a 1:1 mixture of Brain Heart Infusion (BHI) broth and glycerol. The reference strains, depending on the growth requirements, were grown on a solid medium—nutrient agar, nutrient agar with 5% addition of lambs defibrinated blood or (in the case of Corynebacterium jeikeium) Triptic Soy Agar (TSA) with the addition of sheep blood, yeast extract and Tween-80. The susceptibility of the strains to chemical compounds was measured analogously to the adopted method of diffusion and disc preparation of antibiotics for compounds introduced into treatment. After receiving the pure culture of the reference strain, obtained from frozen samples and grown on the appropriate medium for growth requirements, suspensions of the tested strains were prepared in a physiological NaCl solution with a density of 0.5 on the McFarland scale. These suspensions were seeded with a cotton ball over the entire surface of the test medium. Discs impregnated with the test compound at a concentration of 100 or 200 µg/mL were then placed on it and incubated for 24 h at 37 °C.
For orientation: In agar diffusion tests the substance spreads into inoculated agar from a disc or well.

Data set [2] deals with L929 cell line (mouse fibroblast cell line). In words: XTT assay, cell proliferation study. In kind it is cell-based. Conditions: for IC50: 24 h incubation, 0.01–1250 µmol/L; for The Range of Influence [%, Control = 100%]: viability over 0.01–1250 µmol/L. As for the experimental part:
(§4) Four independent experiments (n = 4 for each used concentration) were performed. […] This indicates good or very good (in the case of 1, 3, 5, 8, 11) selectivity of action. […] Due to the dual action of these compounds, it would be advisable to study their effect on stimulation of proliferation at concentrations below 0.01 μmol/L. This dual action may be desirable during therapy, because the dosage may affect the nature of the compounds.
The mouse fibroblast cell line L929 (Sigma-Aldrich) was grown in MEM (Minimum Essential Medium) (Biowest, Nuaillé, France) containing 10% of Fetal Bovine Serum (Biowest), 1 mmol/L sodium pyruvate (Biological Industries, Cromwell, CT, USA), 0.5 mmol/L non-essential amino acids (Sigma-Aldrich) and 100 units/mL penicillin with […] streptomycin (Biological Industries) in an incubator at 37 °C with 5% CO2. Cells were plated and grown to 80% confluence before the initiation of the assay.
(§5) The XTT assay was used to evaluate cell metabolic activity. […] The number of viable cells is correlated with the colour intensity determined by photometric measurements. XTT (Serva, Heidelberg, Germany) was dissolved in MEM without phenol red (PAN-Biotech, Aidenbach, Germany) or DMEM without phenol red (PAN-Biotech) at a concentration of 1 mg/mL. Phenazine metosulphate (PMS) (Serva) was dissolved in phosphate-buffered saline (PBS, 5 mmol/L). PMS solution was then added to the XTT solution at a concentration of 25 μM. Investigated compounds were dissolved in dimethyl sulfoxide (DMSO) to obtain stock solutions.
(§6) L929 and EA.hy926 cells were seeded into 96-well plates at a density of 1 × 10^4 cells per well. They were cultured for 24 h in the incubator (37 °C and 5% CO2). After that time, the medium was removed. Then the 100 µL of medium containing investigated compounds (in the range of concentration 0.01–1250 µmol/L) or only culture medium (blank control) were added. Cisplatin was used as a reference compound. Cells were further incubated for 24 h. At the third day, the old medium were removed and cells were washed with PBS. 100 µL of culture medium with the additional 50 µL of the XTT/PMS solution were added to each well. Plates were incubated in the dark for 3 h at 37 °C. Then, the plates were swayed and an aliquot of 100 µL from each well was transferred into the corresponding well of a new plate. Finally, the absorbance was measured by using the microplate reader (Synergy H1, BioTek, Winooski, VT, USA) at a wavelength of 450 nm. The cell viability was expressed as a percentage of the control values (blanks).
(Formazan colour is commonly taken as a measure of viable cells.)

The subject of data set [3] is EA.hy926 cell line (the human umbilical vein, somatic cell hybrid). Briefly: XTT assay, cell proliferation study. In kind it is cell-based. Conditions: for IC50: 24 h incubation, 0.01–1250 µmol/L; for The Range of Influence [%, Control = 100%]: viability over 0.01–1250 µmol/L; for Selectivity of action (IC50 EA.hy926 versus L929): IC50 lower for EA.hy926 than for L929. The method, then: as §4
The EA.hy926 cell line (the human umbilical vein, somatic cell hybrid, American Type Culture Collection, Manassas, VA, USA) was used to evaluate the cytotoxicity of novel compounds. Cells were grown in Dulbecco’s Modified Eagle’s Medium (DMEM) which contains 10% of Fetal Bovine Serum (Biowest), 2 mmol/L glutamine (Sigma-Aldrich) and 100 units/mL penicillin with […] streptomycin (Biological Industries). Cells were plated and grown in an incubator at 37 °C with 5% CO2 to 80% confluence before the initiation of the assay.
as §5, §6

For data set [4], the system named is Fifteen strains of microorganisms from different species. Briefly: Initial antimicrobial screening by disc diffusion on the whole panel. In kind it is cell-based. Conditions: 15 strains, discs at 100 or 200 µg/mL. The method, then: as §1, §2, §3
Data set [5] concerns Neisseria meningitidis DSM 25942. In words: Disc diffusion, inhibition of growth zones. In kind it is cell-based. Conditions: N. meningitidis. The method, then: as §1, §2, §3
In data set [6] the test system is Staphylococcus aureus NCTC 4135. Briefly: Disc diffusion, inhibition of growth zones. The data set is classed as cell-based. Conditions: S. aureus; discs at 100 or 200 µg/mL, 24 h at 37 °C. As for the experimental part:
as §1, §2, §3

For data set [7], the system named is Staphylococcus epidermidis ATCC 12228. Briefly: Disc diffusion, inhibition of growth zones. The data set is classed as cell-based. Conditions: S. epidermidis; discs at 100 or 200 µg/mL, 24 h at 37 °C. As for the experimental part:
as §1, §2, §3

For data set [8], the system named is Streptococcus pyogenes ATCC 19615. Briefly: Disc diffusion, inhibition of growth zones. In kind it is cell-based. Conditions: S. pyogenes; discs at 100 or 200 µg/mL, 24 h at 37 °C. As for the experimental part: as §1, §2, §3

The text below walks through data of PMC6222780, “Synthesis, Spectroscopic Analysis and Assessment of the Biological Activity of New Hydrazine and Hydrazide Derivatives of 3-Formylchromone” (Molecules : A Journal of Synthetic Chemistry and Natural …, 2018).

As a reminder, the IC50 is the point on the concentration scale where inhibition reaches its midpoint. On to `O=c1c(C=NNc2cc(F)ccc2F)coc2ccccc12` [Compound 1, 3-[(2,5-Difluorophenyl)-hydrazonomethyl]-chromen-4-one], for which the “Inhibition of growth zones (lowest effective studied concentration)” value (shortened to “Inhibition of growth zones”) in [1] was determined as 100 µg/mL. In addition, in data set [2] (L929, XTT), the “Stimulating effect on proliferation” value was “weak stimulating effect”; the IC50 was found to be 209 µM; the “The Range of Influence [%, Control = 100%]” value is 27.64–101.8%. For the same compound, in [3] (EA.hy926, XTT), the “Stimulating effect on proliferation” value is “weak stimulating effect”; the concentration for half-maximal inhibition (IC50) turned out to be 59.1 µM; the “The Range of Influence [%, Control = 100%]” value was 14.79–106.26%. In addition, in [3], the “Selectivity of action (IC50 EA.hy926 versus L929)” value (from here on “Selectivity of action”) is “very good”. Also, the “Inhibition of microbial growth (result in words)” value (from here on “Inhibition of microbial growth”) in data set [4] was “exhibit antimicrobial potential”.
As usually defined, the melting point is the temperature of the solid-liquid transition. On to `O=C(N/N=C/c1coc2ccccc2c1=O)c1ccc(F)cc1` [Compound 5, 4-Fluorobenzoic acid [1-(4-oxo-4H-chromen-3-yl)-meth-(E)-ylidene]-hydrazide], for which the melting point is 201 to 202 °C. The “The Range of Influence [%, Control = 100%]” value in [2] (L929, XTT) is reported as 16.03–56.35%. The IC50 in data set [2] (Mus musculus, L929, XTT) worked out at 65.9 µM. Further, the “The Range of Influence [%, Control = 100%]” value in [3] (EA.hy926, XTT) is 11.81–60.64%. In addition, in data set [3], the “Selectivity of action” value is reported as “very good”. The “Inhibition of microbial growth” value in [4] is “not able to inhibit microbial growth”.
Consider `O=c1c(C=NNc2c(F)c(F)c(F)c(F)c2F)coc2ccccc12` [Compound 9, 3-(Pentafluorophenyl-hydrazonomethyl)-chromen-4-one], for which, in [5] (disc at 200 µg/mL), the “Influence on growth at 200 µg/mL” value is reported as “not observed”. For the same compound, the “Inhibition of growth zones” value in [5] (discs at 100 or 200 µg/mL, 24 h at 37 °C) amounted to 100 µg/mL. The IC50 in [2] (L929, XTT) amounted to 386 µM; in data set [3] (EA.hy926, XTT), 253 µM. In addition, the “The Range of Influence [%, Control = 100%]” value is given as 13.92–85.11% in data set [2] (L929, XTT) and 13.15–69.88% in [3] (EA.hy926, XTT). The “Inhibition of microbial growth” value in data set [4] is given as “exhibit antimicrobial potential”.
“Complex of 4-Fluorobenzoic acid [1-(4-oxo-4H-chromen-3-yl)-meth-(E)-ylidene]-hydrazide with Cu (II) [Compound 11]”: the “Inhibition of growth zones” value in [6] is on record as 100 µg/mL; in [7] it was 100 µg/mL; in data set [8], 200 µg/mL. Besides, the IC50 in [2] (L929, XTT) came to 35 µM. For the same compound, the “The Range of Influence [%, Control = 100%]” value in data set [2] (L929, XTT) is 10.30–75.02%; in [3] (EA.hy926, XTT), 8.58–53.23%. Besides, the “IC50 value lower than ligand 5” value amounted to 46.89% in [2] (L929, complex 11 compared with ligand 5) and 77.78% in data set [3] (EA.hy926, complex 11 compared with ligand 5). For the same compound, the “Selectivity of action” value in [3] is given as “very good”. In addition, in data set [4], the “Inhibition of microbial growth” value is given as “exhibit antimicrobial potential”.
